Reference: patent US7470549B2, “Measurement method using biosensor” (FUJIFILM Corporation, priority 2004, dated 2008)

Assays:
[1] = target: T1, Trypsin (Bos taurus, UniProt P00760); experiment: Selection of compounds by affinity: SPR binding to trypsin-immobilized PMMA/PEO sensor chip (Example 6); conditions: for Binding amount (RU): left at rest 10 minutes, change of resonance signal, PMMA sensor chip
T1 sequence (P00760 24-246): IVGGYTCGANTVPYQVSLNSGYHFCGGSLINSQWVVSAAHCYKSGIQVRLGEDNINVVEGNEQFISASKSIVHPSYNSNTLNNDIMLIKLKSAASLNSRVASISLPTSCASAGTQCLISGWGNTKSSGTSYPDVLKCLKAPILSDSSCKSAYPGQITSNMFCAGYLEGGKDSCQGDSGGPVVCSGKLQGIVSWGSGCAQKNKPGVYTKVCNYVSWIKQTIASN
Procedure: Using the SPR system used for screening shown in FIG. 1, immobilization of a ligand, the binding measurement of compounds, and selection of compounds were carried out.
Thereafter, it was placed in a spin coater (MODEL ASS-303; manufactured by ABLE) and then rotated at 1,000 rpm. 50 μl of a methyl ethyl ketone solution containing polymethyl methacrylate (2 mg/ml) was added dropwise to the center of the cover glass coated with gold via evaporation, and 2 minutes later, the rotation was terminated. The thickness of the membrane was measured by the ellipsometry method (In-Situ Ellipsometer MAUS-101; manufactured by Five Lab). […] This sample is called a PMMA surface chip. This PMMA surface chip was immersed in an NaOH aqueous solution (1 N) at 40° C. for 16 hours, followed by washing with water 3 times. This sample is called a PMMA/COOH surface chip. This PMMA/COOH surface chip was immersed in 2 ml of a mixed solution of 1-ethyl-2,3-dimethylaminopropylcarbodiimide (400 mM) and N-hydroxysuccinimide (100 mM) for 60 minutes. Thereafter, it was immersed in 2 ml of an α-amino-polyethyleneoxy-ω-carboxylic acid (mean molecular weight: 5,000) aqueous solution (10 mM) for 16 hours. The resultant product was finally washed with water 5 times. The thus obtained sensor chip was used in the following operation.
(§1) A mixed solution of 1-ethyl-2,3-dimethylaminopropylcarbodiimide (400 mM) and N-hydroxysuccinimide (100 mM) was added to the sensor chip produced in (1) above, followed by leaving at rest for 20 minute. Thereafter, the resultant product was washed with an HBS-N buffer containing 10 mM CaCl2. Subsequently, trypsin (1 mg/ml, 10 mM CaCl2-containing HBS-N buffer) was added thereto, followed by leaving at rest for 30 minutes. Thereafter, the resultant product was washed with a 10 mM CaCl2-containing HBS-N buffer.
Thereafter, an ethanolamine/HCl solution (1M, pH 8.5) was added to the measurement chip, followed by washing with an HBS-N buffer (manufactured by Biacore).
The sensor chip on which trypsin had been immobilized was washed with an HBS-N buffer.

[2] = target: T1, Trypsin; experiment: SPR measurement of substance binding to trypsin immobilized on hydrogel-coated chip (Examples 1-4); conditions: for Bond of substance interacting with trypsin (RU): 0.002 mM solution, left at rest 10 minutes, change of resonance signal, hydrogel-coated chip; for Binding to trypsin (in words): comment on Table 1
Procedure: Trypsin (manufactured by Worthington) was immobilized on a measurement chip. Interaction measurement was carried out using a surface plasmon resonance measurement device.
as §1, with “solution consisting” for “solution”, “a hydrogel-coated chip,” for “the sensor chip produced in (1) above,”, “buffer. The used HBS-N buffer is composed of 0.01 mol/l (pH 7.4) HEPES (N-2-hydroxyethylpiperazine-N′-2-ethanesulfonic acid) and 0.15 mol/l NaCl.” for “buffer.”
Thereafter, an ethanolamine/HCl solution (1M, pH 8.5) was added to the measurement chip, followed by washing with an HBS-N buffer (manufactured by Biacore), so as to block COOH groups that remained without reacting with trypsin.
(§2) By the aforementioned operations, trypsin was immobilized on the surface of the measurement chip via a covalent bond. The amount by which resonance signals (RU value) obtained before the addition of trypsin and after washing it had changed was defined as the immobilized amount of trypsin (RU value).
(§3) A measurement chip was washed with an HBS-N buffer. Thereafter, the measurement chip was equipped into a surface plasmon resonance measurement device, and a leupeptin solution (0.002 mM, HBS-N buffer) was added thereto, followed by leaving at rest for 10 minutes. The amount by which resonance signals (RU value) had changed was defined as the amount of leupeptin (manufactured by ICN) binding to trypsin.
A measurement chip was washed with an HBS-N buffer.
as §3, with “chymostatin” for “leupeptin”

[3] = target: T1, Trypsin; experiment: Enzyme activity of immobilized trypsin with Bz-Arg-MCA, fluorescence of decomposed product, same hydrogel chip (Examples 1-4); type: biochemical; conditions: for Measurement results of fluorescence intensity (120 minutes): 0.002 mM substance, 0.1 mM Bz-Arg-MCA, excitation 380 nm, emission 460 nm, no substance: 580; for Inhibitory action on the enzyme activity of trypsin (in words): comment on Table 1
Procedure: (§4) Using the chip after the measurement of the amount of leupeptin binding to trypsin described in (2) above, the enzyme activity of trypsin was measured. Specifically, a substrate specific to trypsin (benzoyl-L-arginine-4-methylcoumarin-7-amide (hereinafter referred to as Bz-Arg-MCA); Peptide Institute, Inc.) was allowed to react with trypsin, and fluorescence in the decomposed product was measured.
The HBS-N buffer contained in the measurement chip was removed, and a leupeptin solution (0.002 mM, HBS-N buffer) and 0.1 mM Bz-Arg-MCA were added thereto. The reaction was then carried out for 10, 30, 60, and 120 minutes.
Fluorescence measurement was carried out regarding the reaction for each of the aforementioned reaction times, using the BMGLabTechnologies FLUOstar measurement device (excitation: 380 nm; and emission: 460 nm).
(§5) Specifically, a substrate specific to trypsin (benzoyl-L-arginine-4-methylcoumarin-7-amide (hereinafter referred to as Bz-Arg-MCA); Peptide Institute, Inc.) was allowed to react with trypsin, and fluorescence in the decomposed product was measured.
The reaction was then carried out for 10, 30, 60, and 120 minutes.
Fluorescence measurement was carried out regarding the reaction for each of the aforementioned reaction times, using the BMGLabTechnologies FLUstar measurement device (excitation: […]; and emission: 460 nm).
as §4, with “chymostatin” for “leupeptin”, “trypsin” for “trypsin described”
The HBS-N buffer contained in the measurement chip was removed, and a chymostatin solution (0.002 mM, HBS-N buffer) and 0.1 mM Bz-Arg-MCA were added thereto. The reaction was then carried out for 10, 30, 60, and 120 minutes.
(§6) Fluorescence measurement was carried out regarding the reaction for each of the aforementioned reaction times, using the BMGLabTechnologies FLUstar measurement device (excitation: 380 nm; and emission: 460 nm).

[4] = target: T1, Trypsin; experiment: Enzyme activity of trypsin on PMMA chip with Bz-Arg-MCA, fluorescence (Example 5); type: biochemical; conditions: leupeptin 0.002 mM, 0.1 mM Bz-Arg-MCA
Procedure: as §4, with “Using the PMMA chip after” for “Using the chip after”, “to trypsin in (2)” for “to trypsin described in (2)”
The inside of the PMMA measurement chip was washed with an HBS-N buffer. Thereafter, a leupeptin solution (0.002 mM, HBS-N buffer) and 0.1 mM Bz-Arg-MCA were added thereto. The reaction was then carried out for 10, 30, 60, and 120 minutes.
as §6

[5] = target: T1, Trypsin; experiment: SPR binding to trypsin on PMMA measurement chip, Biacore 3000 (Example 5); conditions: leupeptin 0.002 mM, 10 minutes
Procedure: Trypsin (manufactured by Worthington) was immobilized on a PMMA measurement chip. Interaction measurement was carried out using a surface plasmon resonance measurement device (Biacore 3000).
A PMMA measurement chip was equipped into Biacore 3000. A mixed solution of 1-ethyl-2,3-dimethylaminopropylcarbodiimide (400 mM) and N-hydroxysulfosuccinimide (100 mM) was added thereto, followed by reaction for 7 minutes. Thereafter, trypsin (0.05 mg/ml, 10 mM CaCl2-containing HBS-N buffer) was added thereto, followed by reaction for 7 minutes.
Thereafter, an ethanolamine/HCl solution (1M, pH 8.5) was added to the measurement chip, followed by reaction for 7 minutes, so as to block COOH groups that remained without reacting with trypsin.
as §2, with “of the PMMA measurement chip” for “of the measurement chip”
A leupeptin solution (0.002 mM, HBS-N buffer) was added to a measurement chip, followed by reaction for 10 minutes. The amount by which resonance signals (RU value) had changed was defined as the amount of leupeptin (manufactured by ICN) binding to trypsin.

[6] = target: T1, Trypsin; experiment: Selection of compounds due to biological activity: trypsin enzyme activity with Bz-Arg-MCA, fluorescence (Example 7); type: biochemical
Procedure: as §5
Thereafter, the reaction was then carried out for 10, 30, 60, and 120 minutes.
as §6

CC(C)C[C@H](NC(=O)[C@@H](NC(=O)N[C@@H](Cc1ccccc1)C(=O)O)[C@@H]1CCN=C(N)N1)C(=O)N[C@H](C=O)Cc1ccccc1 [Chymostatin]
Binding amount (RU) [1]: 0 RU | Bond of substance interacting with trypsin (RU) [2]: 0 RU | Binding to trypsin (in words) [2]: did not bind to trypsin | Measurement results of fluorescence intensity (120 minutes) [3]: 576 | Inhibitory action on the enzyme activity of trypsin (in words) [3]: no inhibitory action on the enzyme activity of trypsin was observed

CC(=O)N[C@@H](CC(C)C)C(=O)N[C@@H](CC(C)C)C(=O)N[C@H](C=O)CCCNC(=N)N [Leupeptin]
Binding observed, selection of compounds (in words) ([1]; Example 6 (3)): the binding of which were observed, were selected | Binding amount (RU) [1]: 23 RU | Selection due to binding amount ([1]; symbols ◯ / X, key not given): ◯ | Fluorescence intensity, compared with CM5 cup [4]: equivalent to the values obtained with CM5 cup | Binding amount of substance interacting with trypsin, compared with CM5 cup [5]: equivalent to the values obtained with CM5 cup | Bond of substance interacting with trypsin (RU) [2]: 22 RU | Binding to trypsin (in words) [2]: bound to the enzyme activity site of trypsin | Measurement value of fluorescence intensity ([6]; 4 μM compound solution mixed 1:1 with 0.2 mM Bz-Arg-MCA, reaction time of the value not given, no compound: 594): 3 | Inhibition of the enzyme activity of trypsin, selection of compounds (in words) ([6]; Example 7 (3)): inhibited the enzyme activity of trypsin | Selection due to enzyme activity ([6]; symbols ◯ / X, key not given): ◯ | Measurement results of fluorescence intensity (120 minutes) [3]: 2 | Inhibitory action on the enzyme activity of trypsin (in words) [3]: inhibiting the enzyme activity
